# Measured values as given in US11608325B2, “Polycrystalline form of dehydrophenylahistin-like compound, and manufacturing and purification method and application thereof” (Shenzhen Huahong Marine Biomedicine Co., Ltd., priority 2016, dated 2023).
# “Also recorded” adds a separate entry of the source.
# Legend:
# Type in all cases: physicochemical
# [1] = Stability study of plinabulin polymorphs
# [2] = Illumination stress test (4500 Lx±500 Lx); settings: for Appearance / Content (HPLC) (calculated as an anhydride) / Relevant substance (HPLC) Impurity D / Relevant substance (HPLC) Total impurities / Relevant substance (HPLC) Impurity A: Illumination test/4500Lx ± 500Lx; for Relevant substance (HPLC) Impurity A: LOQ (0.035%); for stability under illumination condition: stress testing, illumination (4500 Lx±500 Lx), monohydrate
# Description: (§1) In accordance with the general rule 9001 of guiding principles for stability tests of APIs and preparations in the Chinese Pharmacopoeia 2015 edition Volume IV, stress testing of the δ-crystalline form of (3Z,6Z)-3-benzylidene-6-[(5-tert-butyl-1H-imidazol-4-yl)deuteromethylene]piperazine-2,5-dione was conducted under high temperature, high humidity and illumination conditions, the sample batch number was 20150401, and the results are shown in Tables 7, 8 and 9 below.
# [3] = 6-month accelerated stability test (40° C.±2° C./75%±5% RH)
# Description: Meanwhile, a 6-month accelerated stability test was conducted on the δ-crystalline form of (3Z,6Z)-3-benzylidene-6-[(5-tert-butyl-1H-imidazol-4-yl)deuteromethylene]piperazine-2,5-dione. The sample batch number was 20150404. Factory packaging was simulated. The test conditions were 40° C.±2° C./75%±5% RH.
# [4] = Hygroscopicity test (Chinese Pharmacopoeia 2015 Volume IV, general rule 9103); settings: for Weight gain: Left for 24 h
# Description: The test was conducted according to the general rule 9103 of guiding principle for drug hygroscopicity test in Chinese Pharmacopoeia 2015 edition Volume IV, and the results are shown in Table 6.
# [5] = High-temperature stress test (60° C.); settings: for Appearance / Content (HPLC) (calculated as an anhydride) / Relevant substance (HPLC) Impurity D / Relevant substance (HPLC) Total impurities / Relevant substance (HPLC) Impurity A: High-temperature test/60° C.; for Relevant substance (HPLC) Impurity A: LOQ (0.035%); for stability under high-temperature condition: stress testing, high temperature (60° C.)
# Description: as §1
# [6] = High-humidity stress test (25° C., 90% RH); settings: for Appearance / Content (HPLC) (calculated as an anhydride) / Relevant substance Impurity D / Relevant substance Total impurities / Relevant substance Impurity A: High-humidity test/25° C., 90% RH; for Relevant substance Impurity A: LOQ (0.035%); for stability / transformation under high-humidity condition: stress testing, high humidity (25° C., 90% RH)
# Description: as §1
# [7] = Transformation of other crystalline forms under humidity or in water
# [8] = listed as 20150401, monohydrate
# [9] = listed as 20150402, monohydrate
# [10] = listed as 20150403, monohydrate
# [11] = listed as (3Z,6Z)-3-benzylidene-6-[(5-tert-butyl-1H-imidazol-4-yl)deuteromethylene]piperaz, monohydrate
# [12] = after being stirred in water for 3 hours
structure (smiles),measurement,setting,value
"CC(C)(C)c1[nH]cnc1/C=c1\[nH]c(=O)/c(=C/c2ccccc2)[nH]c1=O.O [d-crystalline form, (3Z,6Z)-3-benzylidene-6-[(5-tert-butyl-1H-imidazol-4-yl)methylene]piperazine-2,5-dione monohydrate]",stability,[1],high stability
same,molecular stability,[1]; during preparation and storage processes,excellent molecular stability
same,stability as solid API in stress testing,"[1]; high temperature, high humidity and illumination conditions",remain stable
"O.[2H]/C(c1nc[nH]c1C(C)(C)C)=c1/[nH]c(=O)/c(=C/c2ccccc2)[nH]c1=O [δ-crystalline form, (3Z,6Z)-3-benzylidene-6-[(5-tert-butyl-1H-imidazol-4-yl)deuteromethylene]piperazine-2,5-dione monohydrate]",Appearance,[2]; day 0,Yellow powder
same,Content (HPLC) (calculated as an anhydride),[2]; day 0,99.7%
same,Relevant substance (HPLC) Impurity D,[2]; day 0,Impurity D: 0.06%
same,Relevant substance (HPLC) Total impurities,[2]; day 0,0.07%
same,Relevant substance (HPLC) Impurity A,[2]; day 0,Impurity A: <LOQ
same,Appearance,[2]; day 5,Yellow powder
same,Content (HPLC) (calculated as an anhydride),[2]; day 5,100.1%
same,Relevant substance (HPLC) Impurity D,[2]; day 5,Impurity D: 0.05%
same,Relevant substance (HPLC) Total impurities,[2]; day 5,0.05%
same,Relevant substance (HPLC) Impurity A,[2]; day 5,Impurity A: <LOQ
same,Appearance,[2]; day 10,Yellow powder
same,Content (HPLC) (calculated as an anhydride),[2]; day 10,99.8%
same,Relevant substance (HPLC) Impurity D,[2]; day 10,Impurity D: 0.05%
same,Relevant substance (HPLC) Total impurities,[2]; day 10,0.05%
same,Relevant substance (HPLC) Impurity A,[2]; day 10,Impurity A: <LOQ
same,stability under illumination condition,"[2]; listed as (3Z,6Z)-3-benzylidene-6-[(5-tert-butyl-1H-imidazol-4-yl)deuteromethylene]piperaz",remain stable
same,stability under illumination condition,[2],very stable; also recorded: relatively stable
same,stability in accelerated stability test,"[3]; 6 months, monohydrate",very stable; also recorded: excellent stability
same,Content (HPLC) (calculated as an anhydride),[3]; month 0,99.5%
same,Relevant substance (HPLC) Impurity D,[3]; month 0,0.06%
same,Relevant substance (HPLC) Other single impurity,[3]; month 0,Not detected
same,Relevant substance (HPLC) Total impurities,[3]; month 0,0.07%
same,Relevant substance (HPLC) Impurity A,"[3]; month 0, LOQ (0.035%)",<LOQ
same,Content (HPLC) (calculated as an anhydride),[3]; month 1,99.6%
same,Relevant substance (HPLC) Impurity D,[3]; month 1,0.06%
same,Relevant substance (HPLC) Other single impurity,[3]; month 1,Not detected
same,Relevant substance (HPLC) Total impurities,[3]; month 1,0.08%
same,Relevant substance (HPLC) Impurity A,"[3]; month 1, LOQ (0.035%)",<LOQ
same,Content (HPLC) (calculated as an anhydride),[3]; month 2,100.2%
same,Relevant substance (HPLC) Impurity D,[3]; month 2,0.06%
same,Relevant substance (HPLC) Other single impurity,[3]; month 2,Not detected
same,Relevant substance (HPLC) Total impurities,[3]; month 2,0.08%
same,Relevant substance (HPLC) Impurity A,"[3]; month 2, LOQ (0.035%)",<LOQ
same,Content (HPLC) (calculated as an anhydride),[3]; month 3,99.8%
same,Relevant substance (HPLC) Impurity D,[3]; month 3,0.06%
same,Relevant substance (HPLC) Other single impurity,[3]; month 3,Not detected
same,Relevant substance (HPLC) Total impurities,[3]; month 3,0.08%
same,Relevant substance (HPLC) Impurity A,"[3]; month 3, LOQ (0.035%)",<LOQ
same,Content (HPLC) (calculated as an anhydride),[3]; month 6,99.7%
same,Relevant substance (HPLC) Impurity D,[3]; month 6,0.06%
same,Relevant substance (HPLC) Other single impurity,[3]; month 6,Not detected
same,Relevant substance (HPLC) Total impurities,[3]; month 6,0.08%
same,Relevant substance (HPLC) Impurity A,"[3]; month 6, LOQ (0.035%)",<LOQ
same,Weight gain,[4]; [8],0.20 mg
same,Weight gain,[4]; [9],0.24 mg
same,Weight gain,[4]; [10],0.20 mg
same,weight gain percentage,[4]; bottle opened for 24 hours,less than 0.2%
same,Hygroscopicity,[4]; [8],none
same,Hygroscopicity,[4]; [9],none
same,Hygroscopicity,[4]; [10],none
same,Hygroscopicity,[4]; monohydrate,basically not hygroscopic
same,Appearance,[5]; day 0,Yellow powder
same,Content (HPLC) (calculated as an anhydride),[5]; day 0,99.7%
same,Relevant substance (HPLC) Impurity D,[5]; day 0,Impurity D: 0.06%
same,Relevant substance (HPLC) Total impurities,[5]; day 0,0.07%
same,Relevant substance (HPLC) Impurity A,[5]; day 0,Impurity A: <LOQ
same,Appearance,[5]; day 5,Yellow powder
same,Content (HPLC) (calculated as an anhydride),[5]; day 5,99.4%
same,Relevant substance (HPLC) Impurity D,[5]; day 5,Impurity D: 0.06%
same,Relevant substance (HPLC) Total impurities,[5]; day 5,0.07%
same,Relevant substance (HPLC) Impurity A,[5]; day 5,Impurity A: <LOQ
same,Appearance,[5]; day 10,Yellow powder
same,Content (HPLC) (calculated as an anhydride),[5]; day 10,99.8%
same,Relevant substance (HPLC) Impurity D,[5]; day 10,Impurity D: 0.06%
same,Relevant substance (HPLC) Total impurities,[5]; day 10,0.07%
same,Relevant substance (HPLC) Impurity A,[5]; day 10,Impurity A: <LOQ
same,stability under high-temperature condition,[5]; [11],remain stable
same,stability under high-temperature condition,[5]; monohydrate,very stable; also recorded: relatively stable
same,Appearance,[6]; day 0,Yellow powder
same,Content (HPLC) (calculated as an anhydride),[6]; day 0,99.7%
same,Relevant substance Impurity D,[6]; day 0,Impurity D: 0.06%
same,Relevant substance Total impurities,[6]; day 0,0.07%
same,Relevant substance Impurity A,[6]; day 0,Impurity A: <LOQ
same,Appearance,[6]; day 5,Yellow powder
same,Content (HPLC) (calculated as an anhydride),[6]; day 5,99.5%
same,Relevant substance Impurity D,[6]; day 5,Impurity D: 0.06%
same,Relevant substance Total impurities,[6]; day 5,0.07%
same,Relevant substance Impurity A,[6]; day 5,Impurity A: <LOQ
same,Appearance,[6]; day 10,Yellow powder
same,Content (HPLC) (calculated as an anhydride),[6]; day 10,99.6%
same,Relevant substance Impurity D,[6]; day 10,Impurity D: 0.06%
same,Relevant substance Total impurities,[6]; day 10,0.07%
same,Relevant substance Impurity A,[6]; day 10,Impurity A: <LOQ
same,stability / transformation under high-humidity condition,[6]; [11],remain stable
same,stability / transformation under high-humidity condition,[6]; monohydrate,very stable; also recorded: relatively stable
"CC(C)(C)c1[nH]cnc1/C=c1\[nH]c(=O)/c(=C/c2ccccc2)[nH]c1=O [a-crystalline form, (3Z,6Z)-3-benzylidene-6-[(5-tert-butyl-1H-imidazol-4-yl)methylene]piperazine-2,5-dione]",Hygroscopicity,[1]; plinabulin crystalline forms,certain hygroscopicity
same,transformation of crystalline form,[1]; under high humidity condition,easily transformed into a d-crystalline form
"CC(C)O.[2H]/C(c1nc[nH]c1C(C)(C)C)=c1/[nH]c(=O)/c(=C/c2ccccc2)[nH]c1=O [ε-crystalline form, (3Z,6Z)-3-benzylidene-6-[(5-tert-butyl-1H-imidazol-4-yl)deuteromethylene]piperazine-2,5-dione monoisopropylate]",stability under high-temperature condition,[5],not stable enough
"[2H]/C(c1nc[nH]c1C(C)(C)C)=c1/[nH]c(=O)/c(=C/c2ccccc2)[nH]c1=O [γ-crystalline form, (3Z,6Z)-3-benzylidene-6-[(5-tert-butyl-1H-imidazol-4-yl)deuteromethylene]piperazine-2,5-dione]",Hygroscopicity,[4],no hygroscopicity
same,stability under high-temperature condition,[5],not stable enough
same,transformation of crystalline form,[7]; [12],most of which may transform into δ-crystalline form
"[2H]/C(c1nc[nH]c1C(C)(C)C)=c1/[nH]c(=O)/c(=C/c2ccccc2)[nH]c1=O [α-crystalline form, (3Z,6Z)-3-benzylidene-6-[(5-tert-butyl-1H-imidazol-4-yl)deuteromethylene]piperazine-2,5-dione]",Hygroscopicity,[4],certain hygroscopicity
same,stability / transformation under high-humidity condition,[6],easily transformed into the δ-crystalline form; also recorded: absorbs moisture easily to transform into δ-crystalline form
same,transformation of crystalline form,[7]; under 60% humidity condition,may partially transform into δ-crystalline form
"[2H]/C(c1nc[nH]c1C(C)(C)C)=c1/[nH]c(=O)/c(=C/c2ccccc2)[nH]c1=O [β-crystalline form, (3Z,6Z)-3-benzylidene-6-[(5-tert-butyl-1H-imidazol-4-yl)deuteromethylene]piperazine-2,5-dione]",Hygroscopicity,[4],no hygroscopicity
same,stability under high-temperature condition,[5],not stable enough
same,transformation of crystalline form,[7]; [12],most of which may transform into δ-crystalline form
